Values of other authors in patent US20040248775A1, “Methods for screening inhibitors of apoptosis” (Wyeth, priority 2003, published 2004).

Target: T1, Apaf-1 (Homo sapiens, UniProt O14727)
T1 sequence (O14727 1-1248): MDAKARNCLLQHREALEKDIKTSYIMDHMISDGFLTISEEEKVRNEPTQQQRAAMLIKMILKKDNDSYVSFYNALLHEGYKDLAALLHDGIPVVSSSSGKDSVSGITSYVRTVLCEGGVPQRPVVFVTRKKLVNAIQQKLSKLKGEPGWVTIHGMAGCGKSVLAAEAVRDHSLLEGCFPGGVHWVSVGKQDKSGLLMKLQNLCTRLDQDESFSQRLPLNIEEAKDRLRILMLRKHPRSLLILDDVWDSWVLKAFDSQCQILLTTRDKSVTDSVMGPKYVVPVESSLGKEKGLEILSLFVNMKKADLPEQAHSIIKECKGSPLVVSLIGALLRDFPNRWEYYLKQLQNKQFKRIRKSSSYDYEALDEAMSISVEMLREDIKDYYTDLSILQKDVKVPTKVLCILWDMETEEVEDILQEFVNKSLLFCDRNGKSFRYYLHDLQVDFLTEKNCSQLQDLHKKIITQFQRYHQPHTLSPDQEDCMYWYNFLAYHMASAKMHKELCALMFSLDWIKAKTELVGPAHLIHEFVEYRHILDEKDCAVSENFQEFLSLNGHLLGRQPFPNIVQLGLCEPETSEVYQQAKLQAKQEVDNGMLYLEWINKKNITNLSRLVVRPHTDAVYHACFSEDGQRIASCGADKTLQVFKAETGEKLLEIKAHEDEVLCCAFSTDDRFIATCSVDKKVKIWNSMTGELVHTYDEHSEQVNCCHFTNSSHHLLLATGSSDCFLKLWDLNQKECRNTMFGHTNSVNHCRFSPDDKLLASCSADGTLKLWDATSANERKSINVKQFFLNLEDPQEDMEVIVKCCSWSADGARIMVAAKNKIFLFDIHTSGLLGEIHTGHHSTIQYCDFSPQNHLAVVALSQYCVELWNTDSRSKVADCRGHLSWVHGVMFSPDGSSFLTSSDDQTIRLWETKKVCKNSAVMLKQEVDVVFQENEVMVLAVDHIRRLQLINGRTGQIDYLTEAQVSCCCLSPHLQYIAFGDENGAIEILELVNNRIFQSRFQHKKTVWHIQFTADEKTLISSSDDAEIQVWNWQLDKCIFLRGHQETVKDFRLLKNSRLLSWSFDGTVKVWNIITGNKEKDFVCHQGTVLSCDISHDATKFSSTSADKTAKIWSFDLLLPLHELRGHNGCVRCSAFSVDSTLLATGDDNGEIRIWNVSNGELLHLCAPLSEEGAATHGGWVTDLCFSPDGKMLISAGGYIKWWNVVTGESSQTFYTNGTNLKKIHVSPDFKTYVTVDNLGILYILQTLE
Settings: Jiang et al., 2000; cited from earlier work

In the case of Nc1ncnc2c1ncn2[C@H]1C[C@H](O)[C@@H](COP(=O)(O)OP(=O)(O)OP(=O)(O)O)O1 [dATP], the “affinity of purine nucleotides for Apaf-1” value is given as “greatest affinity”.
